Measured values published in patent US20220348565A1, “PHARMACEUTICAL COMPOUNDS” (SENTINEL ONCOLOGY LIMITED, priority 2019, published 2022).

How the values were obtained:
[1] = tested on: U87-Luc cells; test: U87-Luc orthotopic xenograft model; type: in vivo, male athymic nude mice; settings: oral 100 mg/kg on days 1, 4, 7, 10 and 13; Day 15
Description: U87-Luc cells were intracerebrally implanted into the brains of male athymic nude mice and tumour growth was monitored by bioluminescent signal. In the treatment group animals were given an oral dose of 100 mg/kg of atropisomer A-2 on days 1, 4, 7, 10 and 13. The control group animals were given vehicle only.

[2] = Mouse PK, brain exposure after p.o. dosing; type: in vivo, Male CD-1 mice
Description: Atropisomers A-2 and A-3 were evaluated in an in vivo mouse model to determine brain and plasma concentrations following p.o. and i.v. dosing.
Male CD-1 mice were dosed with the compounds of Examples A-2 and A-3, either by i.v. administration (2 mg/kg) or by p.o. administration (10 mg/kg). Eight samples were taken for analysis in the i.v. leg at 2, 10, 30 min, 1, 2, 4, 8, and 24 (for i.v) and 9 samples in the p.o. leg at 15, 30 min, 1, 2, 4, 8, 24, 48 and 72 hrs.
The compounds of Examples A-2 and A-3 were both formulated in 10% DMSO/90% hydroxypropyl-beta-cyclodextrin (20% w/v in water) for i.v. and p.o. dosing. N =3 mice per time point.
Post dosing, terminal blood samples were taken from individual animals and delivered into labelled polypropylene tubes containing anticoagulant (EDTA). The samples were held on wet ice for a maximum of 30 min while sampling of all the animals in the cohort was completed. The blood samples were centrifuged for plasma (4° C., 21100 g for 5 min) and the resulting plasma transferred into corresponding labelled tubes. Terminal brains from each PO dosed animal were excised, rinsed with saline and placed into pre-weighed labelled polypropylene tubes and the samples re-weighed prior to storage.
Quantitative bioanalysis was carried out using liquid chromatography—mass spectroscopy was performed. The results are shown in Tables 14, 15 and 16 below and in FIGS. 12 to 15.

[3] = mouse, po, brain exposure, p.o. 10 mg/kg, male CD-1 mice

- Kp ([2]; male, CD-1, mouse, brain and plasma, 10 mg/kg, brain:plasma, oral dosing in mice, read-out: AUC B:P ratio): 3.3
- Cmax [2, 3]: 693 ng/mL
- Tmax [2, 3]: 8 h
- half-life ([2]; mouse, po, brain exposure, p.o. 10 mg/kg, male CD-1 mice, read-out: T ½ (converted)): 12.1 h
- AUC(0-t) ([2]; mouse, po, brain, p.o. 10 mg/kg, male CD-1 mice, read-out: AUClast brain): 20500 ng·h/mL
- brain exposure (in words) ([2]; oral dosing in mice): high brain exposure
SMILES: CN(C)CCNC(=O)c1ccc(-c2ccc(-c3ccc(Cl)cc3)n2-c2ccccc2C(F)(F)F)cc1 (single isomer, unassigned) [Atropisomer A-2, 4-[5-(4-chlorophenyl)-1-[2-(trifluoromethyl)phenyl]pyrrol-2-yl]-N-[2-(dimethylamino)ethyl]benzamide]
- tumour bioluminescent signal treated versus control [1]: decrease in tumour signal
